Experimental findings from paper PMC10819521 (Pharmaceutics, 2024) are described below.

The structures appear in SMILES notation. Several values for one entry are separate records, joined by “and”; a condition that tells them apart may be missing. Equal entries are not always repeated.

Assay [1] addresses T1, Human isolated cathepsin L (Homo sapiens, UniProt P07711).
T1 construct: Human isolated cathepsin L (Enzo Life Sciences) was assayed spectrophotometrically; purchased Enzo Life Sciences
Nature of the assay: Cathepsin L assay (chromogenic substrate Z-Phe-Arg-pNA). In kind it is biochemical. Particulars: 50 µM inhibitor, 60 min, 100% = no inhibitor, n.i. = residual activity ≥ 95%; for remaining activity at 50 µM: read-out: Percentage residual activity of human cathepsin L. Here is the method:
(§1) Cathepsin assays. Assays with human cathepsins B, S, L, and K were carried out as described previously. Stock solutions of substrates and inhibitors were prepared in DMSO. The final DMSO concentration was 2%. All test compounds were investigated in duplicate at a concentration of 50 µM to determine residual activities based on endpoints of substrate consumption after 60 min. Ki values were obtained in duplicate measurements with six different inhibitor concentrations, and 60-min-progress curves were analyzed by linear regression. IC50 values were obtained by non-linear regression using the equation vi = v0/(1 + ([I]/IC50), where vi is the product formation rate at different inhibitor concentrations, v0 is the uninhibited product formation rate, [I] is the inhibitor concentration, and IC50 is the half-maximal inhibitory concentration. IC50 values are transformed to Ki values using the Cheng-Prusoff equation.
Human isolated cathepsin L (Enzo Life Sciences) was assayed spectrophotometrically (Cary 50 Bio, Varian) at 405 nm and 37 °C. The assay buffer was 100 mM sodium phosphate buffer pH 6.0, 100 mM NaCl, 5 mM EDTA, and 0.01% Brij 35. For activation, an enzyme stock solution was diluted with assay buffer containing 5 mM DTT and incubated for 30 min at 37 °C. The final concentration of the chromogenic substrate Z-Phe-Arg-pNA was 100 µM (5.88 × Km).
(§2) Cathepsins inhibition. Compounds 4a–l were then evaluated for their ability to inhibit Cat S. Besides Cat S, the set of assays included three related human cathepsins, B, L, and K, all members of the class of lysosomal cysteine proteases (see Table S1 in the Supporting Information). Following reported procedures, [39, 40, 41] percentage or residual activities were determined using chromogenic or fluorogenic peptide substrates, with endpoints measured after 60 min of substrate consumption. To determine Ki values, progress curves were followed over 60 min and analyzed by linear regression. Ki values were then obtained by non-linear regression.

Assay [2] relates to voltage-gated calcium channels. Nature of the assay: Calcium channel blockade (FLIPR Calcium 6 indicator, SH-SY5Y cells). In kind it is cell-based, human. The conditions noted are these: compounds at 10 µM, KCl/CaCl2 stimulation, n.i. = no inhibition. Here is the method:
Calcium channel blockade. Evaluation of the calcium channel blockade of compounds 4a–l was performed using the FLIPR Calcium 6 indicator according to a previously established protocol. Briefly, human neuroblastoma cell line SH-SY5Y seeded out on 96-well plate were treated with fluorescent calcium indicator (FLIPR Calcium 6, Molecular Devices). Cells were incubated with indicator for 2 h at 37 °C, facilitating internalization of the indicator. Subsequently, cells were exposed to nimodipine (10 µM, used as reference inhibitor), DMSO (0.1%, used as vehicle control) or our compounds of interest (10 µM) for 10 min also at 37 °C. Following that, cell fluorescence was recorded using a microplate reader (λEx = 485 nm; λEm = 525 nm). Baseline fluorescence was recorded for 5 s. Afterwards, cells were stimulated by the addition of the solution of KCl and CaCl2 (90 and 5 mM, respectively) in order to induce the opening of voltage-gated calcium channels. An increase in fluorescence of calcium indicator after inducing calcium flux was recorded for another 30 s. Data were collected from three independent experiments, with eight technical replicates per experiment. Fluorescence intensity values were normalized to the baseline recorded before the induction of calcium flux. The percentage of inhibition was calculated as a reduction of normalized calcium flux in comparison with the DMSO vehicle control. Outliers were detected using the Grubbs test, and any outlying values were excluded from further analysis.
Calcium channel blockade. The Ca^2+ channel blocking capacity of compounds 4a–l and nimodipine, used as a standard at a concentration of 10 μM, was evaluated according to an established methodology.

A further assay relates to Nrf2-ARE. Nature of the assay: Nrf2 transcriptional activation, cell-based luciferase assay. Particulars: CD = concentration required to double the specific activity of the luciferase reporter; 24 h; read-out: Nrf2 Induction Potencies CD. The method, then:
Nrf2 transcriptional activation potencies. The assessment of the Nrf2 transcriptional activation potencies of compounds 4a–l was carried out using the previously described method, and detailed information is provided in the supporting information.
Nrf2 transcriptional activation potencies of compounds 4a–l. […] AREc32 cells were exposed to escalating concentrations of each compound (1, 5, 10, 25, 50, 100, 125, and 150 μM) for 24 h to reach the cytotoxic threshold, followed by measurements of luciferase activity. Melatonin was used as a positive control.
4e H Cl H n.i. 76 n.i. […]
Nrf2 transcriptional activation potencies. The stable NRF2/ARE luciferase reporter HEK293 cell line
(Promega) according to the manufacturer's instructions. To assess cellular viability, the stable

Assay [3] in a line: Oxygen radical absorbance capacity assay (ORAC-FL). Particulars: ORAC-FL method; mean ± SEM. Here is the method: Oxygen radical absorbance capacity assay. The evaluation of the antioxidant activity of compounds 4a–l was carried out using the previously established ORAC-FL method, and detailed information is provided in the supporting information.
Antioxidant assay. The antioxidant assessment was conducted by evaluating the compounds 4a–l through the determination of oxygen radical absorbance capacity (ORAC) using the ORAC-Fluorescein (ORAC-FL) method […]
Oxygen radical absorbance capacity assay.
ORAC-FL method, using fluorescein as a fluorescent probe. Shortly, fluorescein and the antioxidants
2,2'-Azobis(amidinopropane)
(emission wavelength) every minute for 1 hour. […]

Assay [4] concerns the target T2, Human recombinant cathepsin S (Homo sapiens, UniProt P25774).
T2 construct: purchased Enzo Life Sciences
Nature of the assay: Cathepsin S assay (fluorogenic substrate Z-Phe-Arg-AMC). In kind it is biochemical. Particulars: for remaining activity at 50 µM: 50 µM inhibitor, 60 min, 100% = no inhibitor, n.i. = residual activity ≥ 95%, read-out: Percentage residual activity of human cathepsin S; for Ki: Ki ± SEM, n.i. = no inhibition, residual activity ≥ 95% at 50 μM, read-out: CatS Ki. Here is the method: as §1
Human recombinant cathepsin S (Enzo Life Sciences) was assayed fluorometrically (FLUOstar Optima plate reader, BMG Labtech) at 25 °C with an emission wavelength of 360 nm and an absorption wavelength of 460 nm. The assay buffer was 100 mM sodium phosphate buffer pH 6.0, 100 mM NaCl, 5 mM EDTA, 0.01% Brij 35. For activation, an enzyme stock solution was diluted with assay buffer containing 5 mM DTT and incubated for 60 min at 37 °C.
as §2

Assay [5] concerns the target T3, Human isolated cathepsin B (Homo sapiens, UniProt P07858).
T3 construct: Human isolated cathepsin B (Calbiochem) was assayed spectrophotometrically; purchased Calbiochem
Nature of the assay: Cathepsin B assay (chromogenic substrate Z-Arg-Arg-pNA). Particulars: 50 µM inhibitor, 60 min, 100% = no inhibitor, n.i. = residual activity ≥ 95%; for remaining activity at 50 µM: read-out: Percentage residual activity of human cathepsin B. In kind it is biochemical. Here is the method:
as §1
Human isolated cathepsin B (Calbiochem) was assayed spectrophotometrically (Cary 50 Bio, Varian) at 405 nm and 37 °C. Assay buffer was 100 mM sodium phosphate buffer pH 6.0, 100 mM NaCl, 5 mM EDTA, 0.01% Brij 35. For activation, an enzyme stock solution was diluted with assay buffer containing 5 mM DTT and incubated for 30 min at 37 °C. The final concentration of the chromogenic substrate Z-Arg-Arg-pNA was 500 µM (0.45 × Km).
as §2

In assay [6] the target is T4, Human recombinant cathepsin K (Homo sapiens, UniProt P43235).
T4 construct: purchased Enzo Life Sciences
T4 sequence (P43235 115-329): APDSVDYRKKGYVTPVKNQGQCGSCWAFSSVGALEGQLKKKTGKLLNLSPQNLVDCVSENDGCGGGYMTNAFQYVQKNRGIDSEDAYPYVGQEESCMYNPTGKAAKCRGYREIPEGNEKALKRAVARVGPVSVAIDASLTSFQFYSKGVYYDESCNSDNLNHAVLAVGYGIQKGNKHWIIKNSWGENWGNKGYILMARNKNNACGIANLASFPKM
Nature of the assay: Cathepsin K assay (substrate Z-Leu-Arg-AMC). In kind it is biochemical. The conditions noted are these: 50 µM inhibitor, 60 min, 100% = no inhibitor, n.i. = residual activity ≥ 95%; for remaining activity at 50 µM: read-out: Percentage residual activity of human cathepsin K. Here is the method:
as §1
Human recombinant cathepsin K (Enzo Life Sciences) was assayed fluorometrically (FLUOstar Optima plate reader, BMG Labtech) with an emission wavelength of 360 nm and an absorption wavelength of 460 nm. The assay buffer was 100 mM sodium citrate pH 5.0, 100 mM NaCl, 1 mM EDTA, 0.01% CHAPS. For activation, an enzyme stock solution was diluted with assay buffer containing 5 mM DTT and incubated for 30 min at 37 °C. The final concentration of the chromogenic substrate Z-Leu-Arg-AMC was 40 µM (13.33 × Km).
as §2

T1 sequence (P07711 114-333): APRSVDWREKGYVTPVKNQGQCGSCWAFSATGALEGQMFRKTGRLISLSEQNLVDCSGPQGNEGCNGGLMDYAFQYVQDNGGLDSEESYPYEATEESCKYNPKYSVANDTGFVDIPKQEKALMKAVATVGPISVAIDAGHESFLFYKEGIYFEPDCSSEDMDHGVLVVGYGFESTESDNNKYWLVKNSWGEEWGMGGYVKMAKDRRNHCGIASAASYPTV
T2 sequence (P25774 115-331): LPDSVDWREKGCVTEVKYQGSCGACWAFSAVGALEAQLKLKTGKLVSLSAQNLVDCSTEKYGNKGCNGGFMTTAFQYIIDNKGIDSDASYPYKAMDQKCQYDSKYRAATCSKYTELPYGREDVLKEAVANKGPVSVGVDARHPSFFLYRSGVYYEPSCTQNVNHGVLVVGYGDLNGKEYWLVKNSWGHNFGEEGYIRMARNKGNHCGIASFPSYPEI

Consider `C#CCN(C)C(=O)C1=C(C)NC(C)=C(C(=O)N(C)CC#C)C1c1cccc(OC)c1` [4l, 4-(3-Methoxyphenyl)-N2,N3,5,6-tetramethyl-N3,N5-bis(prop-2-yn-1-yl)-1,4-dihydropyridine-3,5-dicarboxamide], for which the remaining activity at 50 µM in assay [1] was determined as 88%; in assay [4] it was 79%; in assay [5], 86%; in assay [6], 81%. Also, the “Calcium Channel Blockade (%)” value in assay [2] is reported as 15%. Besides, the EC50 in the assay with Nrf2-ARE turned out to be 81.7 ± 11.6 µM. In addition, in assay [3], the ORAC was found to be 0.96 ± 0.07 Trolox equivalents.

Take `C#CCNC(=O)C1=C(C)NC(C)=C(C(=O)NCC#C)C1c1ccccc1OC` [4f, 4-(2-Methoxyphenyl)-2,6-dimethyl-N3,N5-bis(prop-2-yn-1-yl)-1,4-dihydropyridine-3,5-dicarboxamide]: the remaining activity at 50 µM worked out at 86% in assay [1], 67% in assay [4] and 71% in assay [5]. Moreover, the “Calcium Channel Blockade (%)” value in assay [2] is 19%. In addition, the ORAC in assay [3] turned out to be 1.34 ± 0.20 Trolox equivalents. In addition, in assay [6], the “Percentage residual activity of human cathepsin K” value is reported as “n.i”.

For the molecule `C#CCNC(=O)C1=C(C)NC(C)=C(C(=O)NCC#C)C1c1cccc2nonc12` [4d, 4-(2,1,3-Benzoxadiazol-4-yl)-2,6-dimethyl-N3,N5-bis(prop-2-yn-1-yl)-1,4-dihydropyridine-3,5-dicarboxamide], the remaining activity at 50 µM in assay [1] was 90%; in assay [4], 77%; in assay [6], 62%. The “Calcium Channel Blockade (%)” value in assay [2] stood at 10%. This molecule also showed an ORAC in assay [3] of 1.23 ± 0.23 Trolox equivalents. The “Percentage residual activity of human cathepsin B” value in assay [5] is “n.i”.

Regarding `COCCOC(=O)C1=C(C)NC(C)=C(C(=O)OC(C)C)C1c1cccc([N+](=O)[O-])c1` (stereo not drawn) [nimodipine, reference compound], in assay [2], the “Calcium Channel Blockade (%)” value was 37%.

For orientation: Ki means a measure of affinity in units of concentration, obtained from inhibition or displacement. As to `C#CCNC(=O)C1=C(C)NC(C)=C(C(=O)NCC#C)C1c1cccc(Br)c1` [4h, 4-(3-Bromophenyl)-2,6-dimethyl-N3,N5-bis(prop-2-yn-1-yl)-1,4-dihydropyridine-3,5-dicarboxamide], the values for the remaining activity at 50 µM in assay [1], in assay [4] and in assay [5] were 87%, 54% and 71%, respectively. In addition, the “Calcium Channel Blockade (%)” value in assay [2] is 7%. Further, the ORAC in assay [3] came to 1.28 ± 0.05 Trolox equivalents. In addition, the Ki in assay [4] is 55.3 ± 7.4 µM. In assay [6], the “Percentage residual activity of human cathepsin K” value is “n.i”.

With `C#CCN(C)C(=O)C1=C(C)NC(C)=C(C(=O)N(C)CC#C)C1c1ccccc1Cl` [4i, 4-(2-Chlorophenyl)-N2,N3,5,6-tetramethyl-N3,N5-bis(prop-2-yn-1-yl)-1,4-dihydropyridine-3,5-dicarboxamide], the remaining activity at 50 µM is 91% in assay [1], 58% in assay [4], 87% in assay [5] and 65% in assay [6]. For the same molecule, in assay [2], the “Calcium Channel Blockade (%)” value was found to be 11%. The EC50 in the assay with Nrf2-ARE stood at 96 ± 6.1 µM. Besides, the ORAC in assay [3] is 1.93 Trolox equivalents and 1.93 ± 0.08 Trolox equivalents. The Ki in assay [4] was determined as 69.3 ± 5.2 µM.

`C#CCNC(=O)C1=C(C)NC(C)=C(C(=O)NCC#C)C1c1ccccc1Cl` [4e, 4-(2-Chlorophenyl)-2,6-dimethyl-N3,N5-bis(prop-2-yn-1-yl)-1,4-dihydropyridine-3,5-dicarboxamide]: in assay [1], the “Percentage residual activity of human cathepsin L” value is “n.i”. In assay [2], the “Calcium Channel Blockade (%)” value was “n.i”. The molecule also gave an ORAC in assay [3] of 1.15 ± 0.02 Trolox equivalents. Besides, the remaining activity at 50 µM in assay [4] stood at 76%; in assay [6], 85%. Besides, the “Percentage residual activity of human cathepsin B” value in assay [5] was “n.i”.

For the molecule `COc1ccc2[nH]cc(CCNC(C)=O)c2c1` [melatonin, reference compound], the EC50 in the assay with Nrf2-ARE is 66.4 ± 16.4 µM.

`C#CCNC(=O)C1=C(C)NC(C)=C(C(=O)NCC#C)C1c1ccccc1Br` [4g, 4-(2-Bromophenyl)-2,6-dimethyl-N3,N5-bis(prop-2-yn-1-yl)-1,4-dihydropyridine-3,5-dicarboxamide]: in assay [1], the “Percentage residual activity of human cathepsin L” value is given as “n.i”. In addition, the “Calcium Channel Blockade (%)” value in assay [2] was “n.i”. The ORAC in assay [3] was 1.43 ± 0.03 Trolox equivalents. The results for the remaining activity at 50 µM in assay [4], in assay [5] and in assay [6] were 70%, 88% and 90%, respectively.
